“And” between values parts separate entries of the source, which are not always exact repeats. Identical values can stand only once. Like-named read-outs stand apart in the source and are kept apart here.
Test: Topotecan PK following Compound 1 infusion
Assay type: in vivo, human
Method: Blood samples were obtained prior to dosing, at the end of the 30-minute infusion (EOI), and at 0.5, 1, 1.5, 2, 2.5, 4, 6, 8, and 24 hours after the end of infusion. Analysis of plasma concentration versus time data for calculation of standard pharmacokinetic (PK) parameters following intravenous infusion administration was conducted using Phoenix WinNonlin version 6.3 using a nominal infusion duration and scheduled blood sampling times. In Cohort 2 there were 3 subjects who received 1.25 mg/m^2 of topotecan once daily on Days 1 to 5. In Cohort 3 there were 4 subjects who received 0.75 mg/m^2 of topotecan once daily on Days 1 to 5.

[1] = Topotecan 0.75 mg/m^2 (Cohort 3) with Compound 1 200 mg/m^2, Day 1, Max
[2] = Topotecan 0.75 mg/m^2 (Cohort 3) with Compound 1 200 mg/m^2, Day 1, Min
[3] = Topotecan 0.75 mg/m^2 (Cohort 3) with Compound 1 200 mg/m^2, Day 1, individual subjects, monohydrochloride
[4] = Topotecan 0.75 mg/m^2 (Cohort 3) with Compound 1 200 mg/m^2, Day 4, Max
[5] = Topotecan 0.75 mg/m^2 (Cohort 3) with Compound 1 200 mg/m^2, Day 4, Min
[6] = Topotecan 0.75 mg/m^2 (Cohort 3) with Compound 1 200 mg/m^2, Day 4, individual subjects, monohydrochloride
[7] = Topotecan 1.25 mg/m^2 (Cohort 2) with Compound 1 200 mg/m^2, Day 1, Max
[8] = Topotecan 1.25 mg/m^2 (Cohort 2) with Compound 1 200 mg/m^2, Day 1, Min
[9] = Topotecan 1.25 mg/m^2 (Cohort 2) with Compound 1 200 mg/m^2, Day 1, individual subjects, monohydrochloride
[10] = Topotecan 1.25 mg/m^2 (Cohort 2) with Compound 1 200 mg/m^2, Day 4, Max
[11] = Topotecan 1.25 mg/m^2 (Cohort 2) with Compound 1 200 mg/m^2, Day 4, Min
[12] = Topotecan 1.25 mg/m^2 (Cohort 2) with Compound 1 200 mg/m^2, Day 4, individual subjects, monohydrochloride
[13] = Topotecan […]^2 (Cohort 1) with Compound 1 200 mg/m^2, Day 1, Max
[14] = Topotecan […]^2 (Cohort 1) with Compound 1 200 mg/m^2, Day 1, Min
[15] = Topotecan […]^2 (Cohort 1) with Compound 1 200 mg/m^2, Day 1, individual subjects, monohydrochloride
[16] = Topotecan […]^2 (Cohort 1) with Compound 1 200 mg/m^2, Day 4, Max
[17] = Topotecan […]^2 (Cohort 1) with Compound 1 200 mg/m^2, Day 4, Min

**Q.** For `CC[C@@]1(O)C(=O)OCc2c1cc1n(c2=O)Cc2cc3c(CN(C)C)c(O)ccc3nc2-1.Cl` [topotecan, (S)-10-[(dimethylamino)methyl]-4-ethyl-4,9-dihydroxy-1H-pyrano[3′,4′:6,7]indolizino[1,2-b]quinoline-3,14(4H,12H)-dione monohydrochloride], which AUC24.5 [1] is on record?
**A.** Its AUC24.5 is 118 ng·h/mL.

**Q.** What about the AUCx5 [1] of the same molecule?
**A.** Its AUCx5 is 78600 nM·min.

**Q.** And the Cmax [1]?
**A.** Its Cmax is 38.5 ng/mL.

**Q.** What about the t½ [1] of the same molecule?
**A.** The t½ was 4.70 h.

**Q.** What about the AUCinf (Topotecan 0.75 mg/m^2 (Cohort 3) with Compound 1 200 mg/m^2, Day 1, Max, monohydrochloride) of the same molecule?
**A.** The AUCinf was 120 h*ng/mL and 15700 min*nM.

**Q.** What about the AUC24.5 [2] of the same molecule?
**A.** The AUC24.5 was 75.0 ng·h/mL.

**Q.** What about the AUCx5 [2] of the same molecule?
**A.** The AUCx5 was 49700 nM·min.

**Q.** What about the Cmax [2] of the same molecule?
**A.** Its Cmax is 17.9 ng/mL.

**Q.** And the t½ [2]?
**A.** The t½ was 4.04 h.

**Q.** And the AUCinf (Topotecan 0.75 mg/m^2 (Cohort 3) with Compound 1 200 mg/m^2, Day 1, Min, monohydrochloride)?
**A.** Its AUCinf is 75.9 h*ng/mL and 9950 min*nM.

**Q.** And the AUC24.5 [3]?
**A.** The AUC24.5 was 75.0 ng·h/mL and 118 ng·h/mL and 94.7 ng·h/mL.

**Q.** And the AUCinf [3]?
**A.** Its AUCinf is 75.9 h*ng/mL and 9950 min*nM and 120 h*ng/mL and 15700 min*nM and 96.8 h*ng/mL and 12700 min*nM.

**Q.** What about the AUCx5 [3] of the same molecule?
**A.** Its AUCx5 is 49700 nM·min and 78600 nM·min and 63400 nM·min.

**Q.** And the Cmax [3]?
**A.** Its Cmax is 20.8 ng/mL and 17.9 ng/mL and 38.5 ng/mL and 32.0 ng/mL.

**Q.** And the t½ [3]?
**A.** Its t½ is 4.04 h and 4.27 h and 4.70 h.

**Q.** And the Cmax [4]?
**A.** The Cmax was 30.7 ng/mL.

**Q.** What about the t½ [4] of the same molecule?
**A.** Its t½ is 5.07 h.

**Q.** And the AUCτ (Topotecan 0.75 mg/m^2 (Cohort 3) with Compound 1 200 mg/m^2, Day 4, Max, monohydrochloride)?
**A.** The AUCτ was 112 h*ng/mL and 14700 min*nM.

**Q.** What about the Cmax [5] of the same molecule?
**A.** Its Cmax is 18.4 ng/mL.

**Q.** And the t½ [5]?
**A.** Its t½ is 4.63 h.

**Q.** What about the AUCτ (Topotecan 0.75 mg/m^2 (Cohort 3) with Compound 1 200 mg/m^2, Day 4, Min, monohydrochloride) of the same molecule?
**A.** Its AUCτ is 74.4 h*ng/mL and 9740 min*nM.

**Q.** What about the AUCτ [6] of the same molecule?
**A.** The AUCτ was 74.4 h*ng/mL and 9740 min*nM and 99.7 h*ng/mL and 13100 min*nM and 112 h*ng/mL and 14700 min*nM.

**Q.** What about the Cmax [6] of the same molecule?
**A.** The Cmax was 18.4 ng/mL and 30.7 ng/mL and 22.6 ng/mL.

**Q.** And the t½ [6]?
**A.** Its t½ is 5.07 h and 4.68 h and 4.73 h.

**Q.** What about the AUC24.5 [7] of the same molecule?
**A.** The AUC24.5 was 247 ng·h/mL.

**Q.** And the AUCx5 [7]?
**A.** Its AUCx5 is 166000 nM·min.

**Q.** What about the Cmax [7] of the same molecule?
**A.** Its Cmax is 94.1 ng/mL.

**Q.** And the t½ [7]?
**A.** The t½ was 5.09 h.

**Q.** What about the AUCinf (Topotecan 1.25 mg/m^2 (Cohort 2) with Compound 1 200 mg/m^2, Day 1, Max, monohydrochloride) of the same molecule?
**A.** Its AUCinf is 254 h*ng/mL and 33300 min*nM.

**Q.** What about the AUC24.5 [8] of the same molecule?
**A.** The AUC24.5 was 120 ng·h/mL.

**Q.** What about the AUCx5 [8] of the same molecule?
**A.** Its AUCx5 is 80400 nM·min.

**Q.** And the Cmax [8]?
**A.** The Cmax was 39.3 ng/mL.

**Q.** And the t½ [8]?
**A.** The t½ was 4.78 h.

**Q.** What about the AUCinf (Topotecan 1.25 mg/m^2 (Cohort 2) with Compound 1 200 mg/m^2, Day 1, Min, monohydrochloride) of the same molecule?
**A.** Its AUCinf is 123 h*ng/mL and 16100 min*nM.

**Q.** What about the AUC24.5 [9] of the same molecule?
**A.** The AUC24.5 was 247 ng·h/mL and 120 ng·h/mL.

**Q.** What about the AUCx5 [9] of the same molecule?
**A.** The AUCx5 was 106000 nM·min and 166000 nM·min and 80400 nM·min.

**Q.** And the Cmax [9]?
**A.** The Cmax was 94.1 ng/mL and 39.3 ng/mL.

**Q.** What about the t½ [9] of the same molecule?
**A.** The t½ was 5.09 h and 4.92 h.

**Q.** And the Cmax [10]?
**A.** Its Cmax is 104 ng/mL.

**Q.** What about the t½ [10] of the same molecule?
**A.** Its t½ is 5.97 h.

**Q.** And the AUCτ (Topotecan 1.25 mg/m^2 (Cohort 2) with Compound 1 200 mg/m^2, Day 4, Max, monohydrochloride)?
**A.** The AUCτ was 231 h*ng/mL and 30300 min*nM.

**Q.** What about the Cmax [11] of the same molecule?
**A.** The Cmax was 33.1 ng/mL.

**Q.** What about the t½ [11] of the same molecule?
**A.** The t½ was 4.98 h.

**Q.** And the AUCτ (Topotecan 1.25 mg/m^2 (Cohort 2) with Compound 1 200 mg/m^2, Day 4, Min, monohydrochloride)?
**A.** The AUCτ was 124 h*ng/mL and 16300 min*nM.

**Q.** And the AUCτ [12]?
**A.** Its AUCτ is 231 h*ng/mL and 30300 min*nM and 124 h*ng/mL and 16300 min*nM.

**Q.** And the Cmax [12]?
**A.** The Cmax was 104 ng/mL and 33.1 ng/mL.

**Q.** What about the t½ [12] of the same molecule?
**A.** Its t½ is 5.97 h and 4.98 h.

**Q.** What about the AUC24.5 [13] of the same molecule?
**A.** The AUC24.5 was 169 ng·h/mL.

**Q.** And the AUCx5 [13]?
**A.** Its AUCx5 is 112000 nM·min.

**Q.** And the Cmax [13]?
**A.** The Cmax was 98.8 ng/mL.

**Q.** And the t½ [13]?
**A.** Its t½ is 4.56 h.

**Q.** And the AUCx5 [14]?
**A.** The AUCx5 was 86600 nM·min.

**Q.** What about the Cmax [14] of the same molecule?
**A.** The Cmax was 40.2 ng/mL.

**Q.** What about the t½ [14] of the same molecule?
**A.** Its t½ is 4.11 h.

**Q.** What about the AUCinf (Topotecan […]^2 (Cohort 1) with Compound 1 200 mg/m^2, Day 1, Min, monohydrochloride) of the same molecule?
**A.** The AUCinf was 17300 nM·min.

**Q.** And the AUC24.5 [15]?
**A.** Its AUC24.5 is 169 ng·h/mL.

**Q.** What about the AUCx5 [15] of the same molecule?
**A.** Its AUCx5 is 112000 nM·min.

**Q.** And the t½ [15]?
**A.** The t½ was 4.11 h.

**Q.** What about the Cmax [16] of the same molecule?
**A.** The Cmax was 122 ng/mL.

**Q.** And the t½ [16]?
**A.** Its t½ is 5.11 h.

**Q.** What about the Cmax [17] of the same molecule?
**A.** The Cmax was 56.5 ng/mL.

**Q.** And the t½ [17]?
**A.** The t½ was 4.64 h.

**Q.** And the AUCτ (Topotecan […]^2 (Cohort 1) with Compound 1 200 mg/m^2, Day 4, Min, monohydrochloride)?
**A.** The AUCτ was 18800 nM·min.

**Q.** And the t½ (Topotecan […]^2 (Cohort 1) with Compound 1 200 mg/m^2, Day 4, individual subjects, monohydrochloride)?
**A.** Its t½ is 4.64 h.

**Q.** And the AUC (human, plasma, intravenous, Topotecan 0.75 mg/m^2 (Cohort 3) with Compound 1 200 mg/m^2, Day 1, Mean, read-out: AUC24.5)?
**A.** The AUC was 92.8 ng·h/mL.

**Q.** What about the AUC(0-inf) (human, plasma, intravenous, Topotecan 0.75 mg/m^2 (Cohort 3) with Compound 1 200 mg/m^2, Day 1, Mean, read-out: AUCinf (converted)) of the same molecule?
**A.** Its AUC(0-inf) is 94.4 ng·h/mL and 0.207 µM·h.

**Q.** And the AUC (human, plasma, intravenous, Topotecan 0.75 mg/m^2 (Cohort 3) with Compound 1 200 mg/m^2, Day 1, Mean, read-out: AUCx5 (converted))?
**A.** Its AUC is 1.03 µM·h.

Reference: patent publication US20160220569A1, “CDK4/6 Inhibitor Dosage Formulations For The Protection Of Hematopoietic Stem And Progenitor Cells During Chemotherapy” (G1 Therapeutics, Inc., priority 2015, published 2016)
